According to patent US20040242503A1 (priority 2000, published 2004):
Read-outs that look alike come from different tables or passages of the source. Marks after values point to notes of the source that are not given here.

Experiments:
LLC-PK1 cells = assay: Apical uptake of L-DOPA in LLC-PK1 cells; assay type: cell-based, porcine
Procedure: Cell culture LLC-PK1 cells, a porcine-derived proximal renal tubule epithelial cell line which retains several properties of proximal tubular epithelial cells in culture (Hull, R. N., et al., 1976, In Vitro 12; 670-677), were obtained from the American Type Culture Collection (Rockville, Md.). LLC-PK1 cells (ATCC CRL 1392; passages 198-206) and were maintained in a humidified atmosphere of 5% CO2-95% air at 37° C. and grown in Medium 199 (Sigma Chemical Company, St. Louis, Mo., USA) supplemented with 100 U/ml penicillin G, 0.25 μg/ml amphotericin B, 100 μg/ml streptomycin (Sigma), 3% foetal bovine serum (Sigma) and 25 mM N-2-hydroxyethylpiperazine-N'-2-ethanesulfonic acid (HEPES; Sigma). For subculturing, the cells were dissociated with 0.05% trypsin-EDTA, split 1:4 and subcultured in Costar flasks with 75- or 162-cm^2 growth areas (Costar, Badhoevedorp, The Netherlands). […] The cell medium was changed every 2 days, and the cells reached confluence after 3-5 days of incubation. For 24 hours prior to each experiment, the cell medium was free of foetal bovine serum. […] On the day of the experiment, the growth medium was aspirated and the cells washed with Hanks' medium; thereafter, the cell monolayers were preincubated for 15 min in Hanks' medium at 37° C. The Hanks' medium had the following composition (mM): […] Test substances were applied from the apical side only, and were present during the preincubation and incubation periods. During preincubation and incubation, the cells were continuously shaken and maintained at 37° C.

[1] = Levels of L-DOPA, dopamine, DOPAC and HVA in rat brain and kidney; assay type: in vivo
Procedure: (§1) Male Wistar rats weighing 170-280 g, kept two per cage under controlled environmental conditions (12 h light/dark cycle and room temperature 24° C.), were used in all experiments. […] The high pressure liquid chromatograph system consisted of a pump (Gilson model 302; Gilson Medical Electronics, […] Bel, France) connected to a manometric module (Gilson model 802 C) and a stainless-steel 5 μm ODS column (Biophase; Bioanalytical Systems, West Lafayette, Ind.) of 25 cm length; samples were injected by means of an automatic sample injector (Gilson model 231) connected to a Gilson dilutor (model 401). […] The detection was carried out electrochemically with a glassy carbon electrode, an Ag/AgCl reference electrode and an amperometric detector (Gilson model 141); the detector cell was operated at 0.75 V. The current produced was monitored using the Gilson 712 HPLC software.

[2] = biological target: T1, aromatic L-amino acid decarboxylase (AADC) (Sus scrofa, UniProt P80041); assay: Decarboxylation of L-DOPA (AADC activity) in LLC-PK1 cells; assay type: cell-based, porcine; settings: read-out: inhibition of AADC activity IC50
T1 construct: host or cells: LLC-PK1 cells
T1 sequence (P80041 1-486): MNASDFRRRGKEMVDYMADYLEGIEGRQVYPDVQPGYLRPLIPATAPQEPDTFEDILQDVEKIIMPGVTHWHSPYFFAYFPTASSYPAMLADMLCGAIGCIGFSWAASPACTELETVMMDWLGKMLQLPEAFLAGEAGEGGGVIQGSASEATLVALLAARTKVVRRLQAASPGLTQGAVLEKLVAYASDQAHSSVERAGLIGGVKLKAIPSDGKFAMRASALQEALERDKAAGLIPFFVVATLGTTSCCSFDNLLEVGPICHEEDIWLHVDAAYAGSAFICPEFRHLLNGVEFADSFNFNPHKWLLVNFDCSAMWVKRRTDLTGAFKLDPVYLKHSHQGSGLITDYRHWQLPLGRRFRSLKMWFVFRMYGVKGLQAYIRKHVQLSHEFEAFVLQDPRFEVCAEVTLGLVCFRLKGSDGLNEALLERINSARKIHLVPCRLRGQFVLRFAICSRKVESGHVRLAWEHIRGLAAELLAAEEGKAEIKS
Procedure: On the day of the experiment, the growth medium was aspirated and the cells (LLC-PK1) washed with Hanks' medium; thereafter, the cell monolayers were preincubated for 15 min in Hanks' medium at 37° C. […] The incubation medium also contained pyridoxal phosphate (120 μM), tolcapone (1 μM) and pargyline (100 μM). […] After preincubation, cells were incubated for 6 min in Hanks' medium with 250 μM LDOPA. The reaction was terminated by the addition of 250 μl of […] perchloric acid. The acidified samples were stored at 4° C. before injection into the high pressure liquid chromatograph for the assay of dopamine.
The high pressure liquid chromatograph system consisted of a pump (Gilson model 302; Gilson Medical Electronics, Villiers le Bel, France) connected to a manometric module (Gilson model 802 C) and a stainless-steel 5 μm ODS column (Biophase; Bioanalytical Systems, West Lafayette, Ind.) of 25 cm length; samples were injected by means of an automatic sample injector (Gilson model 231) connected to a Gilson dilutor (model 401). […] The detection was carried out electrochemically with a glassy carbon electrode, an Ag/AgCl reference electrode and an amperometric detector (Gilson model 141); the detector cell was operated at 0.75 V. The current produced was monitored using the Gilson 712 HPLC software.

[3] = biological target: T2, aromatic L-amino acid decarboxylase (AADC) (Rattus norvegicus, UniProt P14173); assay: Assay of AADC in rat tissues (brain, liver, kidney) under Vmax conditions; assay type: in vivo; settings: 30 mg/kg
T2 construct: from tissue; host or cells: brain, liver and kidney of male Wistar rats
T2 sequence (P14173 1-480): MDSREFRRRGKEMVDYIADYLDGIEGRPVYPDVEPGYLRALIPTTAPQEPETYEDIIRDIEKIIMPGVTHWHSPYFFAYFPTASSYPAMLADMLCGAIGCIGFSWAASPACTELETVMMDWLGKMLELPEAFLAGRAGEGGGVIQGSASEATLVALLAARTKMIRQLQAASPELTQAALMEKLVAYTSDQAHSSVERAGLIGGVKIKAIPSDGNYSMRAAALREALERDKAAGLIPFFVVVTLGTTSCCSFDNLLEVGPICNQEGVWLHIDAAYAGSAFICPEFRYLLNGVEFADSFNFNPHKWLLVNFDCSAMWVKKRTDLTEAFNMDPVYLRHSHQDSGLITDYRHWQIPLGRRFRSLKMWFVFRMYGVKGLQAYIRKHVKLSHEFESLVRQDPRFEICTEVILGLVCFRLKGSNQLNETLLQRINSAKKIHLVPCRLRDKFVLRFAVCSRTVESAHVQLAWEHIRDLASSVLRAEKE
Procedure: Male Wistar rats weighing 170-280 g, kept two per cage under controlled environmental conditions (12 h light/dark cycle and room temperature 24° C.), were used in all experiments.
The reaction was stopped by the addition of 500 μl of 2 M perchloric acid and the preparations kept at 4° C. for 60 min. The samples were then centrifuged (200 g, 2 min. 4° C.) and 500 μl aliquots of the supernatant filtered on Spin-X filter tubes (Costar) were used for the assay of dopamine.
Since high doses of benserazide may result in inhibition of AADC in brain (Da Prada, et al., 1987, Eur.

[4] = Levels of L-DOPA in plasma of rats; assay type: in vivo, rat; settings: oral, 30 min before L-DOPA 12 mg/kg plus benserazide 3 mg/kg
Procedure: as §1

[5] = brain, L-DOPA 12 mg/kg alone, 60 min
[6] = brain, R 0.3 mg/kg 30 min before L 12 mg/kg + B 3 mg/kg, 60 min after L + B
[7] = brain, R 1.0 mg/kg 30 min before L 12 mg/kg + B 3 mg/kg, 60 min after L + B
[8] = brain, R 3.0 mg/kg 30 min before L 12 mg/kg + B 3 mg/kg, 60 min after L + B
[9] = brain, R 10.0 mg/kg 30 min before L 12 mg/kg + B 3 mg/kg, 60 min after L + B
[10] = brain, R 30.0 mg/kg 30 min before L 12 mg/kg + B 3 mg/kg, 60 min after L + B
[11] = kidney, R 0.3 mg/kg 30 min before L 12 mg/kg + B 3 mg/kg, 60 min after L + B
[12] = kidney, R 1.0 mg/kg 30 min before L 12 mg/kg + B 3 mg/kg, 60 min after L + B
[13] = kidney, R 3.0 mg/kg 30 min before L 12 mg/kg + B 3 mg/kg, 60 min after L + B
[14] = kidney, R 10.0 mg/kg 30 min before L 12 mg/kg + B 3 mg/kg, 60 min after L + B
[15] = kidney, R 30.0 mg/kg 30 min before L 12 mg/kg + B 3 mg/kg, 60 min after L + B

SMILES: NC1(C(=O)O)CC2CCC1C2 (centres unmarked) [BHC, 2-aminobicyclo(2,2,1)-heptane-2-carboxylic acid]
- Vmax for L-DOPA uptake in presence of inhibitor (LLC-PK1 cells; 1 mM BHC): 3783±244 pmol/mg protein/6 min
- type of inhibitory effect on the accumulation of L-DOPA (LLC-PK1 cells; 1 mM BHC): competitive type
- IC50 (LLC-PK1 cells; Sus scrofa, LLC-PK1, read-out: inhibition of L-DOPA uptake IC50): 407 µM
- Km (LLC-PK1 cells; read-out: Km for L-DOPA uptake in presence of inhibitor, 1 mM BHC): 130 ± 19 µM

SMILES: N[C@@H](Cc1ccc(O)c(O)c1)C(=O)O [L-DOPA, L-3,4-dihydroxyphenylalanine, reference compound]
- Vmax of L-DOPA apical transporter (LLC-PK1 cells; 6 min, 1 to 250 μM substrate): 3069±224 pmol mg protein/6 min
- intracellular L-DOPA concentration (LLC-PK1 cells; 6 min incubation, medium concentration 0.5 μM): 4.0 ± 0.4 µM
- Km (LLC-PK1 cells; read-out: Km of L-DOPA apical transporter, 6 min, 1 to 250 μM substrate): 47 ± 8 µM
- DA level [1, 5]: 201.0 ± 19.6 ng/g
- DOPAC level [1, 5]: 24.3 ± 2.4 ng/g
- HVA level [1, 5]: 320.6 ± 37.4 ng/g
- L-DOPA level [1, 5]: 9.6 ± 1.0 ng/g
- DA level ([1]; kidney, L-DOPA 12 mg/kg alone, 60 min): 120.8 ± 27.5 ng/g

SMILES: CNC(C)(C)C(=O)O [MeAIB, N-(methylamino)-isobutyric acid]
- effect on the uptake of L-DOPA (LLC-PK1 cells; LLC-PK1 cells): failed to affect

SMILES: NC(CO)C(=O)NNCc1ccc(O)c(O)c1O (centres unmarked) [benserazide]
- IC50 [2]: 0.07 µM

SMILES: Oc1ccc(C=Cc2cc(O)cc(O)c2)cc1 [resveratrol]
- kidney AADC activity reduction ([3]; rat kidney): 38%
- liver AADC activity reduction ([3]; rat liver): 48%
- DA level [1, 6]: 280.6 ± 36.6 ng/g
- DOPAC level [1, 6]: 192.7 ± 13.8 ng/g
- HVA level [1, 6]: 3975.5 ± 462.1 ng/g
- L-DOPA level [1, 6]: 146.8 ± 14.9 ng/g
- DOPAC level [1, 7]: 149.9 ± 15.8 ng/g
- HVA level [1, 7]: 3068.6 ± 234.4 ng/g
- L-DOPA level [1, 7]: 143.5 ± 29.1 ng/g
- DA level [1, 8]: 412.5 ± 79.7 ng/g
- DOPAC level [1, 8]: 221.2 ± 33.8 ng/g
- HVA level [1, 8]: 3026.5 ± 337.2 ng/g
- L-DOPA level [1, 8]: 180.9 ± 26.3 ng/g
- DA level [1, 9]: 531.9 ± 41.6 ng/g
- DOPAC level [1, 9]: 316.6 ± 20.9 ng/g
- HVA level [1, 9]: 2449.5 ± 93.5 ng/g
- L-DOPA level [1, 9]: 208.4 ± 21.8 ng/g
- DA level [1, 10]: 403.2 ± 99.2 ng/g
- DOPAC level [1, 10]: 257.8 ± 51.1 ng/g
- HVA level [1, 10]: 3324.8 ± 529.4 ng/g
- L-DOPA level [1, 10]: 294.0 ± 52.1 ng/g
- DA level [1, 11]: 685.4 + 148.4 ng/g
- DOPAC level [1, 11]: 564.2 + 183.0 ng/g
- HVA level [1, 11]: 27169.4 ± 2617.0 ng/g
- L-DOPA level [1, 11]: 857.4 + 103.3* ng/g
- DA level [1, 12]: 622.5 + 61.5* ng/g
- DOPAC level [1, 12]: 598.3 + 144.5 ng/g
- HVA level [1, 12]: 26254.3 ± 3677.0 ng/g
- L-DOPA level [1, 12]: 739.3 + 144.7* ng/g
- DA level [1, 13]: 615.0 + 60.8* ng/g
- DOPAC level [1, 13]: 420.4 + 33.3* ng/g
- HVA level [1, 13]: 29094.8 ± 3342.3 ng/g
- L-DOPA level [1, 13]: 1016.2 + 121.5* ng/g
- DA level [1, 14]: 710.3 + 67.2* ng/g
- DOPAC level [1, 14]: 476.3 + 52.8* ng/g
- HVA level [1, 14]: 25779.8 ± 3941.7 ng/g
- L-DOPA level [1, 14]: 949.3 + 126.4* ng/g
- DA level [1, 15]: 864.4 + 316.1* ng/g
- DOPAC level [1, 15]: 731.9 + 427.3 ng/g
- HVA level [1, 15]: 27923.6 ± 10686.2 ng/g
- L-DOPA level [1, 15]: 1198.6 + 225.1* ng/g
- effect on plasma levels of L-DOPA [4]: Increases in plasma levels of L-DOPA
